Source: patent US20030054990A1, “Methods of using neural thread proteins to treat tumors and other conditions requiring the removal or destruction of cells” (Nymox Pharmaceutical Corporation, priority 2001, published 2003)
Several values for one entry are separate records, joined by “and”; a condition that tells them apart may be missing. Equal values may be shown once.

Key:
Format in all cases: cell-based
[1] = MTT assay, cytotoxicity in glioma cells; conditions: glioma cells (ATCC), per cent of negative control, Tamoxifen 100 μM, AD7C-NTP 100-1000 ng/ml, read-out: Percent Of Viable Cells
Experimental: (§1) Cryopreserved glioma and neuroblastoma cells were acquired from the American Type Culture Collection (ATCC), Virginia. Cells were thawed and diluted in suspension media and centrifuged at 700 rpm for 7 minutes at 4° C. Cell pellets were then resuspended in CACO-2 media and cultured in standard 75 or 175 cm^2 flasks at 37° C., 5% CO2 until approximately confluent. The cells were then trypsinized and resuspended in CACO-2 media to achieve a final cell density of 1.5×10^5 cells/ml. 50 μl aliquots per sample were then added per well to 96 well plates.
(§2) For Experiment I, 50 μl of either PBS (phosphate buffered solution) (negative control), 100 μM tamoxifen in phosphate buffered saline PBS (positive control), or test article were added to each sample culture.
(§3) For Experiment II, 1 mM tamoxifen in DMSO (dimethylsulfoxide) was diluted to 100 μM concentration in CACO-2 media, and 100 μl per well was added to positive control wells. A vehicle control consisting of 1% DMSO in CACO-2 media was also added to this experiment. Other negative controls consisted of human and bovine serum albumin and other nontoxic polypeptides.
(§4) An MTT assay is a sensitive assay for the measurement of cell proliferation based upon the reduction of the tetrazolium salt 3,[4,5-dimethylthiazol-2-yl]-2,5-diphenyltetrazolium bromide (MTT).
(§5) Following incubations with control or test substances, media was aspirated and 100 μl MTT was added to each well. Plates were then incubated for 3 hours at 37° C., 5% CO2. MTT was then replaced with acidified isopropanol (0.4 N HCI) and the plates were stored overnight at 4° C., covered. Plates were then agitated gently for 1 minute on a rotary shaker and the difference between emission absorbance of 570 nm and background absorbance of 650 nm was measured spectrophotometrically on an automated plate reader.
(§6) Neuroblastoma and glioma cells were incubated for 24 hours following treatment with test materials or control solutions. MTT was added to all cultures at this time. Results are expressed as means absorbance differences and represented as per cent of negative control and are shown in Table 1 (cytotoxicity in glioma cells) and Table 2 (cytotoxicity in neuroblastoma cells).
(§7) Glioma cells and neuroblastma cells were used for this experiment. MTT was added to the plates following a 24 hour incubation with control or test solutions. Other plates were replenished with fresh media, control, or test solution at 24 hours and then read 3 days later. Results are expressed as mean absorbance differences and as per cent of negative control and are shown in Table 3 (glioma cells) and Table 4 (neuroblastoma cells).

glioma cells = experiment: MTT assay, cytotoxicity in glioma cells; conditions: Tamoxifen 100 μM, AD7C-NTP 100-1000 ng/ml; for ABS 570-650 Sample: single replicate
Experimental: as §1, §2, §3, §4, §5, §6, §7

neuroblastoma cells = experiment: MTT assay, cytotoxicity in neuroblastoma cells; conditions: Tamoxifen 100 μM, AD7C-NTP 100-1000 ng/ml; for Sample (absorbance difference): single replicate
Experimental: as §1, §2, §3, §4, §5, §6, §7

[2] = MTT assay, cytotoxicity in neuroblastoma cells; conditions: neuroblastoma cells (ATCC), per cent of negative control, Tamoxifen 100 μM, AD7C-NTP 100-1000 ng/ml, read-out: Percent Of Viable Cells
Experimental: as §1, §2, §3, §4, §5, §6, §7

CC/C(=C(\c1ccccc1)c1ccc(OCCN(C)C)cc1)c1ccccc1 [PC (Tamoxifen), tamoxifen]
viability at 24 h, 100 µM ([1]; 24 hrs): 28%
viability at 4 days, 100 µM ([1]; 4 days): 19%
ABS 570-650 Mean (glioma cells; 24 hrs): 0.015
ABS 570-650 Sample (glioma cells; 24 hrs): 0.017 and 0.012
ABS 570-650 Mean (glioma cells; 4 days): 0.015
ABS 570-650 Sample (glioma cells; 4 days): 0.018 and 0.012
Mean (absorbance difference) (neuroblastoma cells; 24 hour incubation): 0.010
Sample (absorbance difference) (neuroblastoma cells; 24 hour incubation): 0.010 and 0.009
Mean (absorbance difference) (neuroblastoma cells; 4 day incubation): 0.019
Sample (absorbance difference) (neuroblastoma cells; 4 day incubation): 0.016
viability at 24 h, 100 µM ([2]; 24 hour incubation): 14%
viability at 4 days, 100 µM ([2]; 4 day incubation): 25%
